The values that follow come from patent US20250353873A1, “COMPOUNDS AND METHODS FOR MODULATING APOE EXPRESSION” (Ionis Pharmaceuticals, Inc., priority 2024, published 2025).

Several values for one entry are separate records, joined by “and”; a condition that tells them apart may be missing. Equal values may be shown once. Strand notation (5' to 3'): a small letter for the sugar, then the base; units joined by * are phosphorothioate-linked, units joined directly phosphodiester-linked; [ ] holds rarer units or linkages, { } end groups; capitals alone tell only the bases. [PN] = cyclic guanidine phosphoramidate internucleoside linkage; [ms] = mesyl phosphoramidate linkage; e = 2'-O-(2-methoxyethyl) (MOE); k = constrained ethyl (cEt); [5mC] = 5-methylcytosine; d = 2'-deoxy (DNA)

The subject of series [1] is human APOE RNA. Briefly: Duration of action study in APOE C57BL/6NTac-Apoeem7250 knock-in mice (Example 16). Type of series: in vivo. The following applies: 300 μg ICV. The procedure:
Modified oligonucleotides described above were tested in the APOE C57BL/6NTac-Apoeem7250 knock-in mouse model described above.
APOE C57BL/6NTac-Apoeem7250 knock-in mice were divided into groups of 2-4 mice each. Each mouse received a single intracerebroventricular (ICV) bolus of 300 μg of modified oligonucleotide. A group of 2-4 mice received a single ICV bolus with PBS as a negative control.
Mice were sacrificed at various timepoints as indicated in the table below and RNA was extracted from cortical brain tissue and spinal cord for quantitative real-time RT-PCR analysis of RNA expression of APOE using primer probe set RTS3073 (described herein above). APOE RNA levels were normalized to mouse Ppia. Mouse Ppia was amplified using primer probe set m_cyclo24 (described herein above). Results are presented as percent human APOE RNA relative to the amount of human APOE RNA in PBS treated animals, (% control). Each experiment is identified in separate tables below.

The subject of series [2] is human APOE RNA. Briefly: Dose-dependent inhibition of human APOE RNA in HepG2 cells, electroporation, 50,000 cells per well, RT-PCR normalized to GAPDH (Example 4, Tables 8-10). The format is cell-based. The conditions noted are these: HepG2, electroporation, 24-hour treatment. Summed up: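 Readout is percent APOE RNA versus untreated controls, measured by RT-PCR (primer probe set RTS3073) and normalized to human GAPDH. Modified oligonucleotides were delivered by electroporation at varying doses into HepG2 cells plated at 50,000 per well.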

The subject of series [3] is human APOE RNA. Put plainly: Activity in APOE C57BL/6NTac-Apoeem7250 knock-in mice, single ICV bolus, 4 weeks (Example 10). The format is in vivo. The following applies: single ICV bolus 300 μg, 4 weeks post treatment, normalized to mouse Ppia. Summed up: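 Human APOE RNA, quantified by real-time RT-PCR with RTS3073 and normalized to mouse Ppia, was read in cortical brain and spinal cord 4 weeks post dosing. Dosing was a single ICV bolus of 300 μg per knock-in mouse; values are % of PBS-treated animals.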

Series [4] concerns human APOE RNA. Put plainly: Activity in APOE C57BL/6NTac-Apoeem7250 knock-in mice, single ICV bolus, 8 weeks (Example 11). The format is in vivo. The following applies: single ICV bolus 300 μg, 8 weeks post treatment, normalized to mouse Ppia. The essentials:
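Cortical and spinal cord human APOE RNA quantified by RT-qPCR 8 weeks after a single 300 μg ICV dose in knock-in mice, Ppia-normalized. Values are percent of levels in PBS-treated animals.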

For series [5], the system named is human APOE RNA. Put plainly: Activity in APOE C57BL/6NTac-Apoeem7250 knock-in mice, single ICV bolus, 16 weeks (Example 12). The format is in vivo. The conditions noted are these: single ICV bolus 300 μg, 16 weeks post treatment, normalized to mouse Ppia. Summed up: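 A single 300 μg intracerebroventricular dose was given, with PBS-treated mice as reference; cortical and spinal cord tissue was taken 16 weeks later. RT-qPCR quantified human APOE RNA, Ppia-normalized, expressed relative to PBS animals (% control).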

Turning to “1746810 (k[5mC]*dT[ms]kT*dG[ms]dG[ms]kT*dG[ms]dA[ms]dA[ms]dT*d[5mC]*dT*dT*dT*dA[ms]dT*dT[ms]kA*kA*kA; antisense) [Compound 1746810]”, the “APOE RNA (% control) Cortex” value in the series with human APOE RNA [1] (112 days post-dose) was 63 % control; in the series with human APOE RNA [1] (140 days post-dose), 82 % control; with human APOE RNA [3], 56 % control. The “APOE RNA (% control) Spinal Cord” value turned out to be 80 % control in the series with human APOE RNA [1] (112 days post-dose), 106 % control in the series with human APOE RNA [1] (140 days post-dose) and 80 % control with human APOE RNA [3]. The “APOE RNA (% UTC)” value came out at 109 % UTC in the series with human APOE RNA [2] (5 nM); 106 % UTC in the series on human APOE RNA [2] (13 nM); 95 % UTC with human APOE RNA [2] (33 nM); 77 % UTC with human APOE RNA [2] (82 nM); 68 % UTC in the series with human APOE RNA [2] (205 nM); 46 % UTC in the series with human APOE RNA [2] (512 nM). Also, the “APOE RNA (% UTC)” value turned out to be 36 % UTC with human APOE RNA [2] (1,280 nM), 13 % UTC with human APOE RNA [2] (3,200 nM), 8 % UTC in the series with human APOE RNA [2] (8,000 nM) and 5 % UTC in the series on human APOE RNA [2] (20,000 nM). In the series with human APOE RNA [2], the IC50 (as a rule, the point on the concentration scale where inhibition reaches its midpoint) came out at 490 nM.
As to “1746811 (k[5mC]*dT[ms]dT[ms]kG*kG*dT[ms]dG[ms]dA[ms]dA[ms]dT*d[5mC]*dT*dT*dT*dA[ms]dT*dT[ms]kA*kA*kA; antisense) [Compound 1746811]”, the “APOE RNA (% control) Cortex” value in the series on human APOE RNA [1] (112 days post-dose) is given as 71 % control; with human APOE RNA [1] (140 days post-dose) it was 89 % control; in the series on human APOE RNA [3], 61 % control. Moreover, the entries for the “APOE RNA (% control) Spinal Cord” value in the series with human APOE RNA [1] (112 days post-dose), in the series on human APOE RNA [1] (140 days post-dose) and in the series on human APOE RNA [3] were 95 % control, 103 % control and 62 % control, respectively. Further, the “APOE RNA (% UTC)” value with human APOE RNA [2] (5 nM) was 99 % UTC; in the series with human APOE RNA [2] (13 nM), 86 % UTC; in the series with human APOE RNA [2] (33 nM) it was 83 % UTC; in the series on human APOE RNA [2] (82 nM) it was 95 % UTC; in the series with human APOE RNA [2] (205 nM), 70 % UTC; with human APOE RNA [2] (512 nM), 54 % UTC. Further, the “APOE RNA (% UTC)” value with human APOE RNA [2] (1,280 nM) came to 47 % UTC; in the series on human APOE RNA [2] (3,200 nM), 23 % UTC; with human APOE RNA [2] (8,000 nM), 12 % UTC; in the series on human APOE RNA [2] (20,000 nM), 5 % UTC. In addition, half-maximal inhibition in the series with human APOE RNA [2] (IC50) required 740 nM.
On to “1753989 (k[5mC]*dT[ms]kT*dG[ms]kG*dT*dG[ms]dA[ms]dA[ms]dT*d[5mC]*dT*dT*dT*dA[ms]kT*dT[ms]kA*dA[ms]kA; antisense) [Compound 1753989]”, for which the “APOE RNA (% control) Cortex” value in the series on human APOE RNA [1] (112 days post-dose) is on record as 58 % control; with human APOE RNA [1] (140 days post-dose), 72 % control; in the series on human APOE RNA [3], 54 % control. The “APOE RNA (% control) Spinal Cord” value turned out to be 117 % control in the series on human APOE RNA [1] (112 days post-dose), 79 % control with human APOE RNA [1] (140 days post-dose) and 49 % control with human APOE RNA [3]. For the same substance, the “APOE RNA (% UTC)” value in the series on human APOE RNA [2] (5 nM) is 113 % UTC; in the series on human APOE RNA [2] (13 nM), 108 % UTC; in the series with human APOE RNA [2] (33 nM) it was 102 % UTC; with human APOE RNA [2] (82 nM) it was 79 % UTC; in the series with human APOE RNA [2] (205 nM), 94 % UTC; in the series on human APOE RNA [2] (512 nM) it was 76 % UTC. For the same substance, the “APOE RNA (% UTC)” value in the series on human APOE RNA [2] (1,280 nM) is recorded as 49 % UTC; in the series on human APOE RNA [2] (3,200 nM), 33 % UTC; in the series on human APOE RNA [2] (8,000 nM), 25 % UTC; with human APOE RNA [2] (20,000 nM) it was 16 % UTC. Moreover, the IC50 in the series on human APOE RNA [2] turned out to be 1670 nM.
“1721309: 6-10-4 MOE gapmer CTTGGTGAATCTTTATTAAA, linkages s[pn][pn][pn]oossssssssss[pn]ss (e[5mC]*eT[PN]eT[PN]eG[PN]eGeTdG*dA*dA*dT*d[5mC]*dT*dT*dT*dA*dT*eT[PN]eA*eA*eA) [compound 1721309]”: in the series with human APOE RNA [1] (14 days post-dose), the “APOE RNA (% control) Cortex” value stood at 45 % control and the “APOE RNA (% control) Spinal Cord” value was found to be 34 % control. Moreover, in the series on human APOE RNA [1] (112 days post-dose), the “APOE RNA (% control) Cortex” value worked out at 93 % control and the “APOE RNA (% control) Spinal Cord” value is given as 39 % control.
Turning to “1721310: 6-10-4 MOE gapmer CTTGGTGAATCTTTATTAAA, linkages s[pn][pn][pn]oossssssszzs[pn]ss (e[5mC]*eT[PN]eT[PN]eG[PN]eGeTdG*dA*dA*dT*d[5mC]*dT*dT*dT[ms]dA[ms]dT*eT[PN]eA*eA*eA) [compound 1721310]”, in the series with human APOE RNA [1] (14 days post-dose), the “APOE RNA (% control) Cortex” value was 35 % control and the “APOE RNA (% control) Spinal Cord” value was 38 % control. Also, in the series on human APOE RNA [1] (112 days post-dose), the “APOE RNA (% control) Cortex” value is given as 88 % control and the “APOE RNA (% control) Spinal Cord” value turned out to be 65 % control.
On the same counts, the results for “1721307: 6-10-4 MOE gapmer CTTGGTGAATCTTTATTAAA, linkages s[pn][pn][pn]oossssssssssoss (e[5mC]*eT[PN]eT[PN]eG[PN]eGeTdG*dA*dA*dT*d[5mC]*dT*dT*dT*dA*dT*eTeA*eA*eA) [compound 1721307]” are 38 % control, 31 % control, 73 % control and 34 % control.
Consider “1721303: 6-10-4 MOE gapmer TTGGTGAATCTTTATTAAAC, linkages s[pn][pn][pn]oossssssssssoss (eT*eT[PN]eG[PN]eG[PN]eTeGdA*dA*dT*d[5mC]*dT*dT*dT*dA*dT*dT*eAeA*eA*e[5mC]) [compound 1721303]”, for which, in the series on human APOE RNA [1] (14 days post-dose), the “APOE RNA (% control) Cortex” value was 36 % control and the “APOE RNA (% control) Spinal Cord” value is 32 % control. For the same substance, in the series with human APOE RNA [1] (112 days post-dose), the “APOE RNA (% control) Cortex” value is given as 75 % control and the “APOE RNA (% control) Spinal Cord” value was 40 % control.
As for “1652901: 6-10-4 MOE gapmer TTGGTGAATCTTTATTAAAC, linkages sooooossssssssssoss (antisense eT*eTeGeGeTeGdA*dA*dT*d[5mC]*dT*dT*dT*dA*dT*dT*eAeA*eA*e[5mC]) [compound 1652901]”, the “APOE RNA (% control) Cortex” value in the series with human APOE RNA [1] (14 days post-dose) is 43 % control; in the series with human APOE RNA [1] (112 days post-dose), 90 % control; in the series on human APOE RNA [4] (cortex), 47 % control and 49 % control; in the series on human APOE RNA [5] (cortex), 104 % control. The “APOE RNA (% control) Spinal Cord” value is 33 % control with human APOE RNA [1] (14 days post-dose); 51 % control in the series on human APOE RNA [1] (112 days post-dose); 18 % control and 27 % control with human APOE RNA [4] (spinal cord); 61 % control in the series with human APOE RNA [5] (spinal cord).
In the case of “1721304: 6-10-4 MOE gapmer TTGGTGAATCTTTATTAAAC, linkages s[pn][pn][pn]oosssssszzssoss (eT*eT[PN]eG[PN]eG[PN]eTeGdA*dA*dT*d[5mC]*dT*dT*dT[ms]dA[ms]dT*dT*eAeA*eA*e[5mC]) [compound 1721304]”, the “APOE RNA (% control) Cortex” value with human APOE RNA [1] (14 days post-dose) came out at 46 % control; with human APOE RNA [1] (112 days post-dose), 67 % control. Besides, the entries for the “APOE RNA (% control) Spinal Cord” value with human APOE RNA [1] (14 days post-dose) and with human APOE RNA [1] (112 days post-dose) were 45 % control and 42 % control, respectively.
